A short description of data set [1]: Penetration of active compounds through enzymatically isolated cuticles of apple tree leaves. Type of data set: in vitro ADME, apple trees of the cultivar Golden Delicious. The settings on record: 300 ppm in DMF/emulsifier W 7:1 (w/w), 20° C., 60% rh; for Penetration after 24 h, EC + RME (1 g/l) + AS (1 g/l): + RME 1 g/l + ammonium sulphate 1 g/l; for Penetration after 24 h, EC + RME (1 g/l) + DAHP (1 g/l): + RME 1 g/l + diammonium hydrogenphosphate 1 g/l; for Penetration after 24 h, EC + AS (1 g/l): + ammonium sulphate 1 g/l; for Penetration after 24 h, EC + DAHP (1 g/l): + diammonium hydrogenphosphate 1 g/l; for Penetration after 24 h, EC + RME (1 g/l): + rapeseed oil methyl ester 1 g/l; for Penetration after 24 h, EC: EC alone. The protocol:
Example 8: Increase of Penetration into the Plant by Ammonium or Phosphonium Salts and Synergistic Increase of Penetration into the Plant by Ammonium Salts in Combination with Penetrants
In this test, the penetration of active compounds through enzymatically isolated cuticles of apple tree leaves is measured.
Use is made of leaves which, fully developed, are cut from apple trees of the cultivar Golden Delicious. The cuticles are isolated by • initially filling leaf discs punched out and stained with dye on the underside by vacuum infiltration with a pectinase solution (0.2 to 2% strength) buffered to pH between 3 and 4, • then adding sodium azide and • allowing the leaf discs treated in this manner to stand until the original leaf structure has dissolved and the non-cellular cuticles have detached.
Only the cuticles, free from hairs and stoma, of the upper sides of the leaves are then used further. They are washed repeatedly alternately with water and a buffer solution of pH 7. The clean cuticles obtained are then mounted on Teflon plates and smoothed and dried with a gentle stream of air.
In the next step, the cuticle membranes obtained in this manner are placed into stainless steel diffusion cells (=transport chambers) for membrane transport studies. To this end, the cuticles are placed with a pincette into the centre of the edges, coated with silicone fat, of the diffusion cells and closed with a ring, which is also treated with fat. The arrangement is chosen such that the morphological outside of the cuticles is facing outwards, i.e. is exposed to air, whereas the original inside is facing the interior of the diffusion cell.
The diffusion cells are filled with a 30% strength ethylene glycol/water solution. To determine the penetration, in each case 10 μl of the spray liquor of the composition below are applied to the outside of the cuticles. The spray liquor is prepared using local tap water of medium hardness.
After the application of the spray liquors, the water is allowed to evaporate and the chambers are inverted and placed into thermostated tubs in which the temperature and atmospheric humidity over the cuticles can be adjusted using a gentle stream of air onto the cuticles with the spray coating (20° C., 60% rh). At regular intervals, an autosampler takes aliquots and the active compound content is determined by HPLC.
The stated numbers are average values of 8 to 10 measurements. It is clearly evident that even ammonium sulphate on its own improves the penetration markedly, and that, together with RME, a superadditive (synergistic) effect is present.

A further data set relates to Lolium multiflorum. The experiment in a line: Herbicidal pre-emergence action. The settings on record: pre-emergence method, 320 g of a.i./ha; about 3 weeks. Type of data set: in vivo. An excerpt: (§1) 1. Herbicidal Pre-Emergence Action
(§2) • Seeds of monocotyledonous and dicotyledonous weed and crop plants are placed in sandy loam in wood fibre pots and covered with soil. The test compounds, formulated in the form of wettable powders (WP), are then, as aqueous suspension with a water application rate of 600 l/ha (converted), with 0.2% of wetting agent added, applied to the surface of the covering soil in various dosages. • After the treatment, the pots are placed in a greenhouse and kept under good growth conditions for the test plants. The visual assessment of the emergence damage on the test plants is carried out after a trial period of about 3 weeks by comparison with untreated controls (herbicidal effect in %: 100% effect=the plants have died, 0% effect=like control plants). • In addition to the compounds mentioned above, the following compounds, applied by the pre-emergence method at 320 g of a.i./ha, show an efficacy of 90% against Lolium multiflorum and Setaria viridis: I-1-a-1 • In addition to the compounds mentioned above, the following compounds, applied by the pre-emergence method at 320 g of a.i./ha, show an efficacy of 100% against Echinocloa crus-galli: I-a-2, I-b-1, I-b-2, I-c-2 2. Herbicidal Post-Emergence Action • Seeds of monocotyledonous and dicotyledonous weed and crop plants are placed in sandy loam in wood fibre pots, covered with soil and cultivated in a greenhouse under good growth conditions. 2-3 weeks after sowing, the test plants are treated at the one-leaf stage. The test compounds, formulated as wettable powders (WP), are, in various dosages at a water application rate of 600 l/ha (converted), with 0.2% of wetting agent added, sprayed onto the green parts of the plants. After the test plants have been kept in the greenhouse under optimum growth conditions for about 3 weeks, the effect of the preparations is rated visually in comparison to untreated controls (herbicidal effect in %: 100% effect=the plants have died, 0% effect=like control plants). • In addition to the compounds mentioned above, the following compounds, applied by the post-emergence method at 80 g/ha, show an efficacy of 90% against Echinocloa crus-galli and Lolium multiflorum: I-a-3, I-a-4, I-a-5.

The test system of a further data set is Setaria viridis. Kind of data set: Herbicidal pre-emergence action. Type of data set: in vivo. The settings on record: pre-emergence method, 320 g of a.i./ha; about 3 weeks.
Text: as §1, §2

In a further data set the test system is Echinocloa crus-galli. The experiment in a line: Herbicidal pre-emergence action. It is filed as in vivo. The settings on record: pre-emergence method, 320 g of a.i./ha; about 3 weeks.
Text: as §1, §2

In data set [2] the test system is greenhouse red spidermite (Tetranychus urticae). The experiment in a line: Tetranychus test OP-resistant (TETRUR spray treatment). It is filed as in vivo. The settings on record: application rate 100 g/ha, bean leaf discs, after 6 days. On the procedure: Tetranychus Test OP-Resistant (TETRUR Spray Treatment)
Solvents: 78.0 parts by weight of acetone
• 1.5 parts by weight of dimethylformamide Emulsifier: 0.5 part by weight of alkylaryl polyglycol ether
To produce a suitable preparation of active compound, 1 part by weight of active compound is mixed with the stated amounts of solvents and emulsifier, and the concentrate is diluted with emulsifier-containing water to the desired concentration. Discs of bean leaves (Phaseolus vulgaris) which are infested by all stages of the greenhouse red spidermite (Tetranychus urticae) are sprayed with an active compound preparation of the desired concentration.
After 6 days, the effect in % is determined. 100% means that all spidermites have been killed; 0% means that none of the spidermites have been killed.

Turning to `CON1CCC2(CC1)NC(=O)C(c1c(C)ccc(-c3ccc(F)cc3)c1C)=C2O` [I-a-1], in data set [1], the “Penetration after 24 h, EC + RME (1 g/l) + AS (1 g/l)” value is reported as 19%; the “Penetration after 24 h, EC + RME (1 g/l) + DAHP (1 g/l)” value is 15%; the “Penetration after 24 h, EC + AS (1 g/l)” value amounted to 3.8%; the “Penetration after 24 h, EC + DAHP (1 g/l)” value is 2.3%. Also, in data set [1], the “Penetration after 24 h, EC + RME (1 g/l)” value stood at 0.8% and the “Penetration after 24 h, EC” value is less than 0.2%. Further, the “efficacy (herbicidal effect in %)” value in the data set on Lolium multiflorum stood at 90%. In addition, the “efficacy (herbicidal effect in %)” value with Setaria viridis stood at 90%.

In the case of `CCON1CCC2(CC1)NC(=O)C(c1c(C)ccc(-c3ccc(F)cc3)c1C)=C2O` [I-a-2], in data set [1], the “Penetration after 24 h, EC + RME (1 g/l) + AS (1 g/l)” value is reported as 17%; the “Penetration after 24 h, EC + RME (1 g/l) + DAHP (1 g/l)” value worked out at 21%; the “Penetration after 24 h, EC + AS (1 g/l)” value came to 3.8%; the “Penetration after 24 h, EC + DAHP (1 g/l)” value is 3.9%. In data set [1], the “Penetration after 24 h, EC + RME (1 g/l)” value stood at 1.7% and the “Penetration after 24 h, EC” value came out at 1.4%. The “efficacy (herbicidal effect in %)” value with Echinocloa crus-galli came out at 100%. Besides, in data set [2], the “efficacy (effect in %, spidermites killed)” value was 100%.

Source of the values: patent publication US9809542B2, “Spiroheterocyclically substituted tetramic acid derivatives” (BAYER INTELLECTUAL PROPERTY GMBH, priority 2010, dated 2017).
